# Assay results published in US10059694B2, “2-aminopyrimidine compound and pharmaceutical composition and use thereof” (Shanghai Institute of Materia Medica, Chinese Academy of …, priority 2014, dated 2018).
# Legend:
# [1] = target: T1, EGFR^wt (Homo sapiens, UniProt P00533); test: kinase inhibitory activity test (ELISA), EGFR^WT; type: biochemical; conditions: ATP 5 μM, 1 hour at 37° C.
# T1 construct: purchased Millipore
# Procedure: (§1) The enzyme substrate poly (glutamic acid, tyrosine)4:1 (Sigma) was diluted with potassium-free PBS (10 mM sodium phosphate buffer, 150 mM NaCl, pH 7.2-7.4) to 20 μg/mL, plate coated with 125 μL/well, reacted for 12-16 hours at 37° C. After the liquid in the wells was discarded, the plates were washed three times with 200 μL/well of T-PBS (PBS containing 0.1% Tween-20), and each time for 5 minutes, and then dried for 1-2 hours in an oven at 37° C. 50 μL of ATP solution diluted with reaction buffer (50 mM HEPES pH 7.4, 50 mM MgCl2, 5 mM MnCl2, 0.2 mM Na3VO4, 1 mM DTT) was added into each well and the final concentration was 5 μM. The compounds were diluted with 1% DMSO to suitable concentrations and were added at 10 μL/well. […] The above reaction system was reacted for 1 hour at 37° C. shaking table (100 rpm). Control wells with no enzyme and control wells with DMSO solvent were set in each experiment. After the reaction was completed, the plates were washed three times with T-PBS. The anti-phosphotyrosine primary antibody PY99 (Santa Cruz) was added at 100 μL/well and the antibody was diluted with T-PBS containing BSA 5 mg/mL by 1:1000. The mixture was reacted for 0.5 h at 37° C. shaking table, the plates were washed three times with T-PBS. The secondary antibody which was horseradish peroxidase-labeled goat anti-mouse IgG was added at 100 μL/well (the antibody was diluted with T-PBS containing BSA 5 mg/mL by 1:2000). The mixture was reacted for 0.5 h at 37° C. shaking table, the plates were washed three times with T-PBS. 2 l/mL of OPD coloring solution was added at 100 μL/well (diluted with 0.1 M citric acid-sodium citrate buffer (pH=5.4) containing 0.03% H2O2) and dark reacted for 1 to 10 minutes at 25° C. 2 M H2SO4 was added at 50 μL/well to terminate the reaction. Reading was carried out with an adjustable wavelength microplate enzyme-labeled instrument SPECTRA MAX 190 at 490 nm wavelength.
# (§2) The IC50 value was calculated by the four-parameter fitting of the suppression curve.
# [2] = target: T2, IGF-1R (Homo sapiens, UniProt P08069); test: kinase inhibitory activity test (ELISA), IGF-1R; type: biochemical; conditions: ATP 5 μM, 1 hour at 37° C.
# T2 construct: purchased Millipore
# T2 sequence (P08069 31-1367): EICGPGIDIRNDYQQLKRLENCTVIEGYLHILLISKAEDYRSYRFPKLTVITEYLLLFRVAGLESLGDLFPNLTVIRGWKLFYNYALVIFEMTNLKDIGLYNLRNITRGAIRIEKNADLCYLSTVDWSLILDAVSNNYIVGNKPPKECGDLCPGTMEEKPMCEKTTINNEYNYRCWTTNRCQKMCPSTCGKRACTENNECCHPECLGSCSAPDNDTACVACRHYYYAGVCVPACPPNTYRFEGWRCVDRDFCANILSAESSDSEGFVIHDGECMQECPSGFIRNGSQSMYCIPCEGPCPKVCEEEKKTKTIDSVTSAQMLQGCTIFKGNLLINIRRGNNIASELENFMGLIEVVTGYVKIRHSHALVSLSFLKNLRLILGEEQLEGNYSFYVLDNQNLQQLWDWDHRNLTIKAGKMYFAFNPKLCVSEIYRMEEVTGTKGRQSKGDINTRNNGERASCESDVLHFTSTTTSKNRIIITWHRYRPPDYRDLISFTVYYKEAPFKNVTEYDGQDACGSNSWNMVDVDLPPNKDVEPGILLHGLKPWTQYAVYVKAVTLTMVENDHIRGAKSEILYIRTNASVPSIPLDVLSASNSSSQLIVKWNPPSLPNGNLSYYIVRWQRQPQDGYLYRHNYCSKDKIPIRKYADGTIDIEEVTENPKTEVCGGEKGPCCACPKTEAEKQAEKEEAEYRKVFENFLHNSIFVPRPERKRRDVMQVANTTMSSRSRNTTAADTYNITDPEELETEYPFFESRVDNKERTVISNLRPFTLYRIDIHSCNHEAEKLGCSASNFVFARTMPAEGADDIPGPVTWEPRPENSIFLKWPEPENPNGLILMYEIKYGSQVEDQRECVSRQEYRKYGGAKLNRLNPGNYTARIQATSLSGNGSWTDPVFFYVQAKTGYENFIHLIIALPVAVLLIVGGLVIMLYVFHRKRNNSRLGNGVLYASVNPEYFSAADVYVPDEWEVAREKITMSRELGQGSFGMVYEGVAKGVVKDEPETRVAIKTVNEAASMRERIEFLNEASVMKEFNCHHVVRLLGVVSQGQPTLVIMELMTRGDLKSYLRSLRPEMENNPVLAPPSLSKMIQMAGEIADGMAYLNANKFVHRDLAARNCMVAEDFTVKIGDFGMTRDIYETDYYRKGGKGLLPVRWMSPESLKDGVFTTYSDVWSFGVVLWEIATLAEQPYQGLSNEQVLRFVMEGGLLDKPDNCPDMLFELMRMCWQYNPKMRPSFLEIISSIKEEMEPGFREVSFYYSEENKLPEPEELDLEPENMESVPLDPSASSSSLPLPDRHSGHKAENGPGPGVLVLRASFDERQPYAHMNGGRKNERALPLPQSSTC
# Procedure: The enzyme substrate poly (glutamic acid, tyrosine)4:1 (Sigma) was diluted with potassium-free PBS (10 mM sodium phosphate buffer, 150 mM NaCl, pH 7.2-7.4) to 20 μg/mL, plate coated with 125 μL/well, reacted for 12-16 hours at 37° C. After the liquid in the wells was discarded, the plates were washed three times with 200 μL/well of T-PBS (PBS containing 0.1% Tween-20), and each time for 5 minutes, and then dried for 1-2 hours in an oven at 37° C. 50 μL of ATP solution diluted with reaction buffer (50 mM HEPES pH 7.4, 50 mM MgCl2, 5 mM MnCl2, 0.2 mM Na3VO4, 1 mM DTT) was added into each well and the final concentration was 5 μM. The compounds were diluted with 1% DMSO to suitable concentrations and were added at 10 μL/well. Then different types of tyrosine kinase proteins (including EGFR^wt, EGFR^T790M/L858R and IGF-1R, purchased from Millipore) diluted with 40 μL of reaction buffer were added. The above reaction system was reacted for 1 hour at 37° C. shaking table (100 rpm). Control wells with no enzyme and control wells with DMSO solvent were set in each experiment. After the reaction was completed, the plates were washed three times with T-PBS. The anti-phosphotyrosine primary antibody PY99 (Santa Cruz) was added at 100 μL/well and the antibody was diluted with T-PBS containing BSA 5 mg/mL by 1:1000. The mixture was reacted for 0.5 h at 37° C. shaking table, the plates were washed three times with T-PBS. The secondary antibody which was horseradish peroxidase-labeled goat anti-mouse IgG was added at 100 μL/well (the antibody was diluted with T-PBS containing BSA 5 mg/mL by 1:2000). The mixture was reacted for 0.5 h at 37° C. shaking table, the plates were washed three times with T-PBS. 2 l/mL of OPD coloring solution was added at 100 μL/well (diluted with 0.1 M citric acid-sodium citrate buffer (pH=5.4) containing 0.03% H2O2) and dark reacted for 1 to 10 minutes at 25° C. 2 M H2SO4 was added at 50 μL/well to terminate the reaction. Reading was carried out with an adjustable wavelength microplate enzyme-labeled instrument SPECTRA MAX 190 at 490 nm wavelength.
# as §2
# [3] = tested on: human epidermal carcinoma A431 cell line; test: SRB proliferation assay, A431 cells; type: cell-based; conditions: A-431, SRB, 72 h, read-out: IC50 A431
# Procedure: (§3) Cell lines: human epidermal carcinoma A431 cell line and human non-small cell lung cancer NCI-H1975 cell line was purchased from the American Standard Biology Collection Center (ATCC).
# (§4) Methods: sulforhodamine B (SRB) method, which was as follows: certain number of different tumor cells in logarithmic growth phase were inoculated on 96-well culture plates. After cultured for 24 h to cell adherence, different concentrations of the test compounds of the invention were added. Each concentration was provided with three wells, and a corresponding concentration of DMSO solvent control and a cell-free zeroing well were set. After the cells were treated with the medicine for 72 h, the culture medium was discarded and 100 μL of 10% pre-cooled trichloroacetic acid solution was added to fix the cells. After placed for 1 h at 4° C., it was washed for 5 times with distilled water and dried naturally. Then 100 μL SRB (4 mg/mL) (Sigma) solution was added and stained for 15 min at room temperature. The staining solution was discarded and washed for 5 times with 1% glacial acetic acid and dried. Finally, 150 μL of 10 mM Tris solution (pH 10.5) was added and the OD value was measured at 515 nm with adjustable wavelength microplate enzyme-labeled instrument (VERSAmax™, Molecular Device Corporation, Sunnyvale, Calif., USA).
# [4] = tested on: human non-small cell lung cancer NCI-H1975 cell line; test: SRB proliferation assay, NCI-H1975 cells; type: cell-based; conditions: NCI-H1975, SRB, 72 h, read-out: IC50 NCI-H1975
# Procedure: as §3
# as §4, with “USA). […] Based on the inhibitory effect of the 2-aminopyrimidine compounds on the growth of these cells, the half maximal inhibitory concentration (IC50) values were calculated, as shown in Table 2.” for “USA).”
# [5] = target: T3, EGFR^T790M/L858R (Homo sapiens, UniProt P00533, L858R/T790M); test: kinase inhibitory activity test (ELISA), EGFR^T790M/L858R; type: biochemical; conditions: ELISA, ATP 5 μM, 1 hour at 37° C.
# T3 construct: purchased Millipore
# T3 sequence (P00533 25-1210 T790M/L858R): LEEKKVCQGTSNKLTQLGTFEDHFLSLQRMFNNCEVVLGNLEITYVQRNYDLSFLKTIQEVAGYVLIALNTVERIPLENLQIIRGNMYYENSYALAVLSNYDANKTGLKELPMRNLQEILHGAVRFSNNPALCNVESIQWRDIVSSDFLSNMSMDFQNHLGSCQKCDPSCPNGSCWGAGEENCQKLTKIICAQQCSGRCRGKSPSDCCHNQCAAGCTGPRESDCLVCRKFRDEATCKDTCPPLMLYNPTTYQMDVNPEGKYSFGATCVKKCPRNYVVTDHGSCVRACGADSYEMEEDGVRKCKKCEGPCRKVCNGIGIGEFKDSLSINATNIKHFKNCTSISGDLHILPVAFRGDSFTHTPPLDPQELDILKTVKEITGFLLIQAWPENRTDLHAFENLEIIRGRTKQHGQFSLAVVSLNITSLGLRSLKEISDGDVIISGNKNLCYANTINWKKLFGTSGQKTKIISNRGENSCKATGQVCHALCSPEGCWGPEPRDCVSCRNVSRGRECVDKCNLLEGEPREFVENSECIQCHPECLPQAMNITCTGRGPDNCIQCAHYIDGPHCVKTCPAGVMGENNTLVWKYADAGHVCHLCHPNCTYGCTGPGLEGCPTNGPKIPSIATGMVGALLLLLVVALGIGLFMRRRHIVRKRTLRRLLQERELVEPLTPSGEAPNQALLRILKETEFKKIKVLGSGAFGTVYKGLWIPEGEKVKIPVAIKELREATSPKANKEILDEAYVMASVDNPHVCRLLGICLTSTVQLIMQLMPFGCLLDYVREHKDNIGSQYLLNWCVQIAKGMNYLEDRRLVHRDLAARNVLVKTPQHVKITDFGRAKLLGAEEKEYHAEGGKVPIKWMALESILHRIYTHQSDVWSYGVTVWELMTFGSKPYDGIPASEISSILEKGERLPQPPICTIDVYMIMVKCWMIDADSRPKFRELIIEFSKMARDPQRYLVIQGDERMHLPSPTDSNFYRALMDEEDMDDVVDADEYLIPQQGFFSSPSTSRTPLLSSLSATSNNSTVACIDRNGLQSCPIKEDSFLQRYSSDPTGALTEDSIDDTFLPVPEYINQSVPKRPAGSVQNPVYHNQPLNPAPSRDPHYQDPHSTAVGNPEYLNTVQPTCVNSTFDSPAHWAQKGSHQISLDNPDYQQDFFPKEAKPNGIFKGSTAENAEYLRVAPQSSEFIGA
# Procedure: as §1, §2
# T1 sequence (P00533 25-1210): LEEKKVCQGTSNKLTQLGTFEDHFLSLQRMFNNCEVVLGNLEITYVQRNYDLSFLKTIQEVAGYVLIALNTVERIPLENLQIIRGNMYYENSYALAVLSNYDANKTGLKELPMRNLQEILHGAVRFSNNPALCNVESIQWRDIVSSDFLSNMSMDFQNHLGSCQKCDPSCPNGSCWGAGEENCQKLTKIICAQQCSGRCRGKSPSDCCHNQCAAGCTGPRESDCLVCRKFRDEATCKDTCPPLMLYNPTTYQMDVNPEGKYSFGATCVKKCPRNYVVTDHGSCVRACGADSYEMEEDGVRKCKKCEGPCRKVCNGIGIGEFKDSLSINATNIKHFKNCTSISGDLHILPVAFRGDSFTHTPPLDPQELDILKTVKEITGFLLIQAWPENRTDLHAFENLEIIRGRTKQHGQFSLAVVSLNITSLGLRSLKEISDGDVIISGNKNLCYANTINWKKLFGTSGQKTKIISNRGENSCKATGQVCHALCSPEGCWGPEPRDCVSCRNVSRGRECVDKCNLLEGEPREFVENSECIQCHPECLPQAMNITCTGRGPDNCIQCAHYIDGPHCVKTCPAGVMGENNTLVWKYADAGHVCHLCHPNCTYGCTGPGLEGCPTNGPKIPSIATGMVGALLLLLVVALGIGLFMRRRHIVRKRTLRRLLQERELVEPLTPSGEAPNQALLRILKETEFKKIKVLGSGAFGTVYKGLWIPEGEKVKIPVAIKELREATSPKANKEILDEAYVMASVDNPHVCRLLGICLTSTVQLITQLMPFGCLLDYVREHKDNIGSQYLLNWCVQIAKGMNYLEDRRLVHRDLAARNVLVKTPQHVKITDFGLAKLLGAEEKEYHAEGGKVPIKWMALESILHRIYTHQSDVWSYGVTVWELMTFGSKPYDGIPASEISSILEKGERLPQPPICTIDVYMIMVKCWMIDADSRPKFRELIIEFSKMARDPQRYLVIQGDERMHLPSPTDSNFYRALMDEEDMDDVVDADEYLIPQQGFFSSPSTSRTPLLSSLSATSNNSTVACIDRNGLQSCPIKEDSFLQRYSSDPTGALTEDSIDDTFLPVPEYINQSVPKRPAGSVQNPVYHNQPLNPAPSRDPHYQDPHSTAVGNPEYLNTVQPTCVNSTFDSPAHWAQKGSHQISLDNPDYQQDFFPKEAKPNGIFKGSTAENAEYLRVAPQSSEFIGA
IC50 [1] [nM],IC50 [2] [nM],IC50 [3] [nM],IC50 [4] [nM],IC50 [5] [nM],SMILES
295,38,615,289,30.8,"COc1ccc(NC(=O)/C=C/CN(C)C)cc1Nc1ncc(Cl)c(Nc2ccc3[nH]ccc3c2)n1 [CCB145231, (E)-N-((3-((5-chloro-4-((indol-5-yl)amino))pyrimidin-2-yl)amino)-4-methoxyphenyl)-4-(dimethylamino)-2-butenamide]"
54.1,98.5,1040,885,56.6,"COc1ccc(NC(=O)/C=C/CN(C)C)cc1Nc1nccc(Nc2ccc3ccccc3c2)n1 [CCB145242, (E)-N-((3-(4-((naphthalen-2-yl)amino)pyrimidin-2-yl)amino)-4-methoxyphenyl)-4-(dimethylamino)-2-butenamide]"
> 10000,297,17800,2040,293,"COc1ccc(NC(=O)/C=C/CN(C)C)cc1Nc1ncc(Cl)c(Oc2ccc3ccccc3c2)n1 [CCB145260, (E)-N-((3-((5-chloro-4-((naphthalen-2-yl)oxy))pyrimidin-2-yl)amino)-4-methoxyphenyl)-4-(dimethylamino)-2-butenamide]"
225,182,1110,1160,102,"COc1ccc(NC(=O)/C=C/CN(C)C)cc1Nc1ncc(OC)c(Nc2ccc3ccccc3c2)n1 [CCB145268, (E)-N-((3-((5-methoxy-4-((naphthalen-2-yl)amino))pyrimidin-2-yl)amino)-4-methoxyphenyl)-4-(dimethylamino)-2-butenamide]"
2070,41,1220,682,31.3,"COc1ccc(NC(=O)/C=C/CN(C)C)cc1Nc1ncc(C(F)(F)F)c(Nc2ccc3ccccc3c2)n1 [CCB145274, (E)-N-((3-((5-trifluoromethyl-4-((naphthalen-2-yl)amino))pyrimidin-2-yl)amino)-4-methoxyphenyl)-4-(dimethylamino)-2-butenamide]"
2290,85.2,1040,860,151,"COc1ccc(NC(=O)/C=C/CN(C)C)cc1Nc1ncc(C(C)C)c(Nc2ccc3ccccc3c2)n1 [CCB145283, (E)-N-((3-((5-isopropyl-4-((naphthalen-2-yl)amino))pyrimidin-2-yl)amino)-4-methoxyphenyl)-4-(dimethylamino)-2-butenamide]"
254,20.5,1120,416,22.5,"COc1ccc(NC(=O)/C=C/CN(C)C)cc1Nc1ncc(Br)c(Nc2ccc3ccccc3c2)n1 [CCB145286, (E)-N-((3-((5-bromo-4-((naphthalen-2-yl)amino))pyrimidin-2-yl)amino)-4-methoxyphenyl)-4-(dimethylamino)-2-butenamide]"
131,151,611,375,32,"COc1ccc(NC(=O)/C=C/CN(C)C)cc1Nc1ncc(F)c(Nc2ccc3ccccc3c2)n1 [CCB145287, (E)-N-((3-((5-fluoro-4-((naphthalen-2-yl)amino))pyrimidin-2-yl)amino)-4-methoxyphenyl)-4-(dimethylamino)-2-butenamide]"
232,103,839,1000,72.9,"COc1ccc(NC(=O)/C=C/CN(C)C)cc1Nc1ncc(C)c(Nc2ccc3ccccc3c2)n1 [CCB145289, (E)-N-((3-((5-methyl-4-((naphthalen-2-yl)amino))pyrimidin-2-yl)amino)-4-methoxyphenyl)-4-(dimethylamino)-2-butenamide]"
≥ 10000,347,11100,2780,159,"COc1ccc(NC(=O)/C=C/CN(C)C)cc1Nc1ncc(Cl)c(Sc2ccc3ccccc3c2)n1 [CCB145291, (E)-N-((3-((5-chloro-4-((naphthalen-2-yl)sulfenyl))pyrimidin-2-yl)amino)-4-methoxyphenyl)-4-(dimethylamino)-2-butenamide]"
173,193,1300,327,22.6,"COc1ccc(NC(=O)/C=C/CN(C)C)cc1Nc1ncc(C#N)c(Nc2ccc3ccccc3c2)n1 [CCB145293, (E)-N-((3-((5-cyano-4-((naphthalen-2-yl)amino))pyrimidin-2-yl)amino)-4-methoxyphenyl)-4-(dimethylamino)-2-butenamide]"
93.9,> 1000,1080,1180,47.2,"COc1ccc(NC(=O)/C=C/CN(C)C)cc1Nc1ncc(Cl)c(N(C)c2ccc3ccccc3c2)n1 [CCB145295, (E)-N-((3-((5-chloro-4-(N-methyl-(naphthalen-2-yl)amino))pyrimidin-2-yl)amino)-4-methoxyphenyl)-4-(dimethylamino)-2-butenamide]"
1400,198,20500,1060,55.7,CN(C)C/C=C/C(=O)Nc1ccc(F)c(Nc2ncc(Cl)c(Nc3ccc4ccccc4c3)n2)c1 [CCB145329]
